Laboratory results as given in PubChem BioAssay AID190 (DTP/NCI, 2004).
Values joined by “and” are separate entries in the source; they are usually repeats but may differ in a detail not shown here. Identical values can stand only once. Inconclusive results and toxic doses are left out.

System: AKR/Lw mice, AKR lymphoma ip, median survival T/C
Assay: NCI In Vivo Anticancer Drug Screen. Data for tumor model Lymphoma AKR (Transplanted) (intraperitoneal) in AKR/Lw mice
Conditions: endpoint: median survival time, higher = longer survival
Protocol: The antitumor activity of compounds was measured in mice bearing transplantable tumors. Survival or tumor size were measured and the results are expressed as the measurement made in the treated group (T) divided by the measurement made in the vehicle treated control group (C). The tumor model used in this assay is Lymphoma AKR (Transplanted) (intraperitoneal) in AKR/Lw mice

[1] = dose: 12.5 mg/kg/injection, schedule: Q01DX009 (ip), vehicle: saline
[2] = dose: 25.0 mg/kg/injection, schedule: Q04DX003 (ip), vehicle: saline
[3] = dose: 500.0 mg/kg/injection, schedule: Q01DX001 (ip), vehicle: saline
[4] = dose: 100.0 mg/kg/injection, schedule: Q01DX001 (ip), vehicle: Klucel (hydroxypropylcellulose) (HPC)
[5] = dose: 100.0 mg/kg/injection, schedule: Q01DX001 (ip), vehicle: saline
[6] = dose: 200.0 mg/kg/injection, schedule: Q01DX001 (ip), vehicle: saline
[7] = dose: 400.0 mg/kg/injection, schedule: Q01DX001 (ip), vehicle: saline
[8] = dose: 100.0 mg/kg/injection, schedule: Q01DX001 (ip), vehicle: saline with Tween-80
[9] = dose: 200.0 mg/kg/injection, schedule: Q01DX001 (ip), vehicle: saline with Tween-80
[10] = dose: 200.0 mg/kg/injection, schedule: Q01DX009 (ip), vehicle: saline
[11] = dose: 400.0 mg/kg/injection, schedule: Q01DX001 (ip), vehicle: saline with Tween-80
[12] = dose: 400.0 mg/kg/injection, schedule: Q04DX003 (ip), vehicle: saline

O=[N+]([O-])O.[Ga]
T/C (dose: 1.25 mg/kg/injection, schedule: Q01DX001 (ip), vehicle: saline): 102 % of control
T/C (dose: 2.5 mg/kg/injection, schedule: Q01DX001 (ip), vehicle: saline): 102 % of control
T/C (dose: 2.5 mg/kg/injection, schedule: Q01DX009 (ip), vehicle: saline): 114 % of control
T/C (dose: 2.5 mg/kg/injection, schedule: Q04DX003 (ip), vehicle: saline): 87 % of control
T/C (dose: 3.1 mg/kg/injection, schedule: Q01DX001 (ip), vehicle: saline): 105 % of control
T/C (dose: 5.0 mg/kg/injection, schedule: Q01DX001 (ip), vehicle: saline): 102 % of control
T/C (dose: 5.0 mg/kg/injection, schedule: Q01DX009 (ip), vehicle: saline): 91 % of control and 100 % of control
T/C (dose: 5.0 mg/kg/injection, schedule: Q04DX003 (ip), vehicle: saline): 93 % of control and 108 % of control
T/C (dose: 6.2 mg/kg/injection, schedule: Q01DX001 (ip), vehicle: saline): 94 % of control
T/C (dose: 6.2 mg/kg/injection, schedule: Q04DX003 (ip), vehicle: saline): 102 % of control
T/C (dose: 7.5 mg/kg/injection, schedule: Q01DX009 (ip), vehicle: saline): 86 % of control
T/C (dose: 8.0 mg/kg/injection, schedule: Q01DX009 (ip), vehicle: saline): 100 % of control
T/C (dose: 10.0 mg/kg/injection, schedule: Q01DX001 (ip), vehicle: saline): 92 % of control and 105 % of control
T/C (dose: 10.0 mg/kg/injection, schedule: Q01DX009 (ip), vehicle: saline): 97 % of control and 111 % of control
T/C (dose: 10.0 mg/kg/injection, schedule: Q04DX003 (ip), vehicle: saline): 87 % of control and 108 % of control
T/C [1]: 105 % of control
T/C (dose: 12.5 mg/kg/injection, schedule: Q04DX003 (ip), vehicle: saline): 102 % of control
T/C (dose: 20.0 mg/kg/injection, schedule: Q01DX001 (ip), vehicle: saline): 105 % of control
T/C (dose: 20.0 mg/kg/injection, schedule: Q01DX009 (ip), vehicle: saline): 94 % of control and 102 % of control
T/C (dose: 20.0 mg/kg/injection, schedule: Q04DX003 (ip), vehicle: saline): 93 % of control and 106 % of control
T/C (dose: 25.0 mg/kg/injection, schedule: Q01DX009 (ip), vehicle: saline): 88 % of control and 105 % of control
T/C [2]: 94 % of control
T/C (dose: 40.0 mg/kg/injection, schedule: Q01DX001 (ip), vehicle: saline): 105 % of control
T/C (dose: 50.0 mg/kg/injection, schedule: Q01DX009 (ip), vehicle: saline): 105 % of control and 110 % of control and 113 % of control
T/C (dose: 64.0 mg/kg/injection, schedule: Q04DX003 (ip), vehicle: water): 116 % of control
T/C [3]: 88 % of control and 95 % of control

COc1ccc(NC(=S)Nc2ccccn2)cc1
T/C [4]: 100 % of control

c1ccc(CC(Cc2ccccc2)CN2CCCC2)cc1
T/C [5]: 94 % of control
T/C [6]: 88 % of control
T/C [7]: 123 % of control

O=[N+]([O-])O.[Th]
T/C [5]: 113 % of control
T/C [6]: 109 % of control
T/C [7]: 104 % of control

O=C1N[C@@H]([C@H]2CC[C@H](Cl)CN2)C(=O)N[C@H]1[C@H]1CC[C@H](Cl)CN1
T/C (dose: 0.5 mg/kg/injection, schedule: Q01DX001 (ip), vehicle: water): 113 % of control
T/C (dose: 1.0 mg/kg/injection, schedule: Q01DX001 (ip), vehicle: water): 111 % of control
T/C (dose: 2.0 mg/kg/injection, schedule: Q01DX001 (ip), vehicle: saline): 102 % of control and 105 % of control
T/C (dose: 2.0 mg/kg/injection, schedule: Q01DX001 (ip), vehicle: water): 114 % of control and 119 % of control
T/C (dose: 2.0 mg/kg/injection, schedule: Q01DX009 (ip), vehicle: water): 178 % of control
T/C (dose: 4.0 mg/kg/injection, schedule: Q01DX001 (ip), vehicle: saline): 102 % of control
T/C (dose: 4.0 mg/kg/injection, schedule: Q01DX001 (ip), vehicle: water): 117 % of control
T/C (dose: 8.0 mg/kg/injection, schedule: Q01DX001 (ip), vehicle: saline): 122 % of control
T/C (dose: 8.0 mg/kg/injection, schedule: Q01DX001 (ip), vehicle: water): 171 % of control and 200 % of control
T/C (dose: 16.0 mg/kg/injection, schedule: Q01DX001 (ip), vehicle: saline): 108 % of control
T/C (dose: 16.0 mg/kg/injection, schedule: Q01DX001 (ip), vehicle: water): 207 % of control

CC(C)(CNc1ccc(C(=O)O)cc1)[N+](=O)[O-]
T/C [5]: 102 % of control
T/C [6]: 95 % of control
T/C [7]: 86 % of control

O=C(Nc1cccc(Cl)c1)Oc1ccc2ccccc2c1
T/C [8]: 100 % of control
T/C (dose: 100.0 mg/kg/injection, schedule: Q01DX009 (ip), vehicle: saline): 92 % of control
T/C [9]: 100 % of control
T/C [10]: 112 % of control
T/C [11]: 105 % of control
T/C [12]: 93 % of control

Nc1ccccc1SC1CC(=O)N(c2ccccc2)C1=O (configuration not stated)
T/C [8]: 94 % of control
T/C [9]: 94 % of control
T/C [11]: 94 % of control

Nc1nc(=S)c2ncn(C3CC(O)C(CO)O3)c2[nH]1 (configuration not stated)
T/C [1]: 93 % of control
T/C [2]: 108 % of control
T/C (dose: 50.0 mg/kg/injection, schedule: Q04DX003 (ip), vehicle: saline): 102 % of control and 119 % of control
T/C [5]: 100 % of control
T/C (dose: 100.0 mg/kg/injection, schedule: Q04DX003 (ip), vehicle: other): 98 % of control and 123 % of control
T/C [6]: 102 % of control
T/C [10]: 86 % of control and 105 % of control and 116 % of control
T/C (dose: 200.0 mg/kg/injection, schedule: Q04DX003 (ip), vehicle: saline): 108 % of control and 112 % of control and 116 % of control
T/C (dose: 300.0 mg/kg/injection, schedule: Q04DX003 (ip), vehicle: saline): 119 % of control
T/C (dose: 400.0 mg/kg/injection, schedule: Q01DX009 (ip), vehicle: saline): 103 % of control and 110 % of control
T/C (dose: 400.0 mg/kg/injection, schedule: Q04DX003 (ip), vehicle: other): 113 % of control
T/C [12]: 116 % of control and 122 % of control
T/C [3]: 105 % of control and 107 % of control and 121 % of control
T/C (dose: 500.0 mg/kg/injection, schedule: Q04DX003 (ip), vehicle: saline): 103 % of control
T/C (dose: 600.0 mg/kg/injection, schedule: Q01DX001 (ip), vehicle: saline): 102 % of control and 111 % of control and 119 % of control
T/C (dose: 600.0 mg/kg/injection, schedule: Q04DX003 (ip), vehicle: saline): 93 % of control and 100 % of control

CCOC(=O)C(O)C(C#N)c1ccccc1 (configuration not stated)
T/C (dose: 100.0 mg/kg/injection, schedule: Q01DX001 (ip), vehicle: other): 103 % of control
T/C (dose: 200.0 mg/kg/injection, schedule: Q01DX001 (ip), vehicle: other): 103 % of control
T/C (dose: 400.0 mg/kg/injection, schedule: Q01DX001 (ip), vehicle: other): 100 % of control

COc1cc2c(cc1OC)C(CNC(=O)/C=C/c1ccccc1)C2 (configuration not stated)
T/C [4]: 102 % of control
T/C (dose: 100.0 mg/kg/injection, schedule: Q04DX003 (ip), vehicle: Klucel (hydroxypropylcellulose) (HPC)): 96 % of control
T/C (dose: 200.0 mg/kg/injection, schedule: Q01DX001 (ip), vehicle: Klucel (hydroxypropylcellulose) (HPC)): 94 % of control
T/C (dose: 200.0 mg/kg/injection, schedule: Q04DX003 (ip), vehicle: Klucel (hydroxypropylcellulose) (HPC)): 100 % of control
T/C (dose: 400.0 mg/kg/injection, schedule: Q01DX001 (ip), vehicle: Klucel (hydroxypropylcellulose) (HPC)): 89 % of control
T/C (dose: 400.0 mg/kg/injection, schedule: Q04DX003 (ip), vehicle: Klucel (hydroxypropylcellulose) (HPC)): 100 % of control

Cc1cnc2c(=N)n(C(=O)C(F)(F)F)n(C)c2n1
T/C [5]: 89 % of control
T/C [6]: 100 % of control
T/C [7]: 92 % of control

C1CC2CCC[N+]3=C2C(C1)CCC3 (configuration not stated)
T/C (dose: 12.5 mg/kg/injection, schedule: Q01DX001 (ip), vehicle: saline): 100 % of control
T/C (dose: 25.0 mg/kg/injection, schedule: Q01DX001 (ip), vehicle: saline): 100 % of control
T/C (dose: 50.0 mg/kg/injection, schedule: Q01DX001 (ip), vehicle: saline): 108 % of control
